Assay results: patent US8962626B2, “Thienopyridazine compounds, their preparations, pharmaceutical compositions and uses” (Zhejiang Medicine Co., Ltd. Xinchang Pharmaceutical Factory, priority 2008, dated 2015)
pIC50: −log10 of the molar value. Like-named read-outs stand apart in the source and are kept apart here.

What was measured:
[1] = system: Human poorly differentiated gastric adenocarcinoma (BGC-823); assay: Cytotoxicity in vitro, SRB and MTT methods, 72 h; format: cell-based; settings: BGC-823 cells, read-out: Anti-cancer Activity IC50 In vitro, BGC-823
Experimental: (§1) Some of the above compounds are tested in vitro and in vivo for their antitumor activities. Among these tests, the cytotoxicity is tested in vitro using SRB and MTT methods for 72 h.

Mouse lung cancer (3LL) = assay: Cytotoxicity in vitro, SRB and MTT methods, 72 h; format: cell-based; settings: 3LL cells, read-out: Anti-cancer Activity IC50 In vitro, 3LL
Experimental: as §1

Human colon cancer HT-29 = assay: Cytotoxicity in vitro, SRB and MTT methods, 72 h; format: cell-based; settings: HT-29 cells, read-out: Anti-cancer Activity IC50 In vitro, HT-29
Experimental: as §1

[2] = system: Human ovarian cancer (A2780); assay: Cytotoxicity in vitro, SRB and MTT methods, 72 h; format: cell-based; settings: A2780 cells, read-out: Anti-cancer Activity IC50 In vitro, A2780
Experimental: as §1

mouse S180 sarcoma = assay: Growth inhibition effect on mouse S180 sarcoma; format: in vivo; settings: mouse S180, 50 mg/kg ip; for Rate of inhibition: N = 7; for Body Weight without Tumor / Ending Body Weight / Tumor Weight / Starting Body Weight: N = 7, X ± SD; for Starting Body Weight: baseline
[3] = system: transplanted tumor of human colon cancer HT-99; assay: Efficacy on transplanted tumor of human colon cancer HT-99 on nude mice; format: in vivo; settings: compounds 60 mg/kg ip d0,1, GCT 20, ADR 4 mg/kg ip, combinations GCT or CPT-11 20 / ADR 4 ip + compound 25 mg/kg iv; for RTV (relative tumor volume) X ± SD / T/C: 17th day; for TV dn: dn = 17th day after administration

Compound	pIC50 ([1]; Homo sapiens, BGC-823, 72 h)	pIC50 (Mouse lung cancer (3LL); Mus musculus, 3LL)	pIC50 (Human colon cancer HT-29; Homo sapiens, HT-29, 72 h)	pIC50 ([2]; Homo sapiens, A2780, 72 h)	further results
CNC(=O)c1nnc(Cc2ccoc2)c2cc(-c3ccc(Cl)cc3)sc12 [XXXXXXIX, 2-(4-chlorophenyl)-4-(3-furanmethyl)-thieno[2,3-d]pyridazinyl-7-N-methyl formamide]	4.77	5.48	5.02	5.15	
NC(=O)c1nnc(CC2CCOC2)c2cc(-c3ccc(F)cc3)sc12 (stereo not drawn) [XXIII, 2-(4-fluorophenyl)-4-(3-tetrahydrofuranmethyl)-thieno[2,3-d]pyridazinyl-7-formamide]	< 4.00	< 4.00	5.25	< 4.00	
2-(4-bromophenyl)-4-(3-α-thiopyranmethyl)-thieno[2,3-d]pyridazinyl-7-formamide [XXXXVI]					pIC50 [1]: 4.95; pIC50 (Mouse lung cancer (3LL)): < 4.00; pIC50 (Human colon cancer HT-29): < 4.00; pIC50 [2]: 4.52
NC(=O)c1nnc(CC2CCOC2)c2cc(-c3ccc(Cl)cc3)sc12 (stereo not drawn) [XXIV, 2-(4-chlorophenyl)-4-(3-tetrahydrofuranmethyl)-thieno[2,3-d]pyridazinyl-7-formamide]					Rate of inhibition (mouse S180 sarcoma): 45.45%; Body Weight without Tumor (mouse S180 sarcoma): 21.56 ± 1.48 g; Ending Body Weight (mouse S180 sarcoma): 23.18 ± 1.66 g; Tumor Weight (mouse S180 sarcoma): 1.62 ± 0.26 g; Starting Body Weight (mouse S180 sarcoma): 19.39 ± 0.60 g
NC(=O)c1nnc(Cc2cccnc2)c2cc(-c3ccc(F)cc3)sc12 [XXXVIII, 2-(4-fluorophenyl)-4-(3-pyridinemethyl)-thieno[2,3-d]pyridazinyl-7-formamide]	5.09	5.50	5.88	5.50	
NC(=O)c1nnc(CC2CCCNC2)c2cc(-c3ccc(Cl)cc3)sc12 (stereo not drawn) [XIII, 2-(4-chlorophenyl)-4-(R-3-piperidinemethyl)-thieno[2,3-d]pyridazinyl-7-formamide]	5.58				pIC50 (Mouse lung cancer (3LL)): 5.91; pIC50 (Human colon cancer HT-29): 6.14; pIC50 [2]: 5.93
CNC(=O)c1nnc(CC2CCSC2)c2cc(-c3ccc(Cl)cc3)sc12 (stereo not drawn) [XXXIV, 2-(4-chlorophenyl)-4-(3-tetrahydrothiophenemethyl)-thieno[2,3-d]pyridazinyl-7-N-methyl formamide]	4.13	4.30	< 4.00	< 4.00	
NC(=O)c1nnc(CC2CCNC2)c2cc(-c3ccc(F)cc3)sc12 (stereo not drawn) [Compound XX, 2-(4-fluorophenyl)-4-(3-pyrrolidinemethyl)-thieno[2,3-d]pyridazinyl-7-formamide]					Rate of inhibition (mouse S180 sarcoma): 37.23%; Body Weight without Tumor (mouse S180 sarcoma): 19.33 ± 1.60 g; Ending Body Weight (mouse S180 sarcoma): 21.19 ± 1.40 g; Tumor Weight (mouse S180 sarcoma): 1.86 ± 0.26 g; Starting Body Weight (mouse S180 sarcoma): 19.50 ± 0.89 g
Nc1ccn([C@@H]2O[C@H](CO)[C@@H](O)C2(F)F)c(=O)n1 [GCT, Gemcitabine]					RTV (relative tumor volume) X ± SD [3]: 1.64 ± 0.44; T/C [3]: 37%; TV dn [3]: 463 ± 74 mm^3
NC(=O)c1nnc(CC2CCNC2)c2cc(-c3ccc(Cl)cc3)sc12 (stereo not drawn) [XXI, 2-(4-chlorophenyl)-4-(3-pyrrolidinemethyl)-thieno[2,3-d]pyridazinyl-7-formamide]			5.06		
NC(=O)c1nnc(CC2CCCNC2)c2cc(-c3ccc(F)cc3)sc12 (stereo not drawn) [Compound I, 2-(4-fluorophenyl)-4-(3-piperidinemethyl)-thieno[2,3-d]pyridazinyl-7-formamide]	5.47	5.85	5.37	5.19	
COc1cccc2c1C(=O)c1c(O)c3c(c(O)c1C2=O)C[C@@](O)(C(=O)CO)C[C@@H]3O[C@H]1C[C@H](N)[C@H](O)[C@H](C)O1 [ADR, Adriamycin]					RTV (relative tumor volume) X ± SD [3]: 4.38 ± 1.38; T/C [3]: 64%; TV dn [3]: 667 ± 67 mm^3
NC(=O)c1nnc(CC2CCSC2)c2cc(-c3ccc(F)cc3)sc12 (stereo not drawn) [XXVI, 2-(4-fluorophenyl)-4-(3-tetrahydrothiophenemethyl)-thieno[2,3-d]pyridazinyl-7-formamide]	4.61	< 4.00	< 4.00	< 4.00	
CN(C)C(=O)c1nnc(CC2CCCNC2)c2cc(-c3ccc(Cl)cc3)sc12 (stereo not drawn) [XV, 2-(4-chlorophenyl)-4-(3-piperidinemethyl)-thieno[2,3-d]pyridazinyl-7-N,N-dimethyl formamide]	5.65				
CN(C)C(=O)c1nnc(Cc2ccoc2)c2cc(-c3ccc(Cl)cc3)sc12 [XXXXXXX, 2-(4-chlorophenyl)-4-(3-furanmethyl)-thieno[2,3-d]pyridazinyl-7-N,N-dimethyl formamide]	5.26	< 4.00	< 4.00	< 4.00	
CNC(=O)c1nnc(CC2CCCNC2)c2cc(-c3ccc(Cl)cc3)sc12 (stereo not drawn) [XIV, 2-(4-chlorophenyl)-4-(3-piperidinemethyl)-thieno[2,3-d]pyridazinyl-7-N-methyl formamide]	4.52	5.07	4.78	5.22	
NC(=O)c1nnc(CC2CCNCC2)c2cc(-c3ccc(Cl)cc3)sc12 [XI, 2-(4-chlorophenyl)-4-(4-piperidinemethyl)-thieno[2,3-d]pyridazinyl-7-formamide]	5.03	5.07	4.97	4.93	
NC(=O)c1nnc(Cc2ccoc2)c2cc(-c3ccc(F)cc3)sc12 [XXXXXVIII, 2-(4-fluorophenyl)-4-(3-furanmethyl)-thieno[2,3-d]pyridazinyl-7-formamide]	4.79	4.67	4.66	4.86	
